According to patent US4826973A, “Delta form of aztreonam and preparation thereof” (priority 1985, dated 1989):

What was measured:
[1] = Physical and processing (bulk) properties of crystalline forms; assay type: physicochemical; settings: TABLE II, crystalline forms of aztreonam
[2] = Intrinsic dissolution rate of crystalline forms; assay type: physicochemical; settings: TABLE II, crystalline forms of aztreonam
[3] = as described for Ser. No. 282,636; cited from earlier work
[4] = compared with α-form or simple salts of the compound; storage prior to conversion to β-form

| SMILES | Density [1] | Flowability [1] | Surface Area [1] | Intrinsic Dissolution Rate [2] | Hygroscopicity (background, earlier application) [3] | Shelf life [4] |
| --- | --- | --- | --- | --- | --- | --- |
| C[C@H]1[C@H](NC(=O)/C(=N\OC(C)(C)C(=O)O)c2csc(N)n2)C(=O)N1S(=O)(=O)O [α-Form, [3S-[3α(Z)4β]]-3-[[(2-amino-4-thiazolyl)[(1-carboxy-1-methylethoxy)imino]acetyl]amino]-4-methyl-2-oxo-1-azetidinesulfonic acid] | low | poor | high | slow |  |  |
| C[C@H]1[C@H](NC(=O)/C(=N\OC(C)(C)C(=O)O)c2csc(N)n2)C(=O)N1S(=O)(=O)O [β-Form, [3S-[3α(Z),4β]]-3-[[(2-amino-4-thiazolyl)-[(1-carboxy-1-methylethoxy)imino]acetyl]amino]-4-methyl-2-oxo-1-azetidinesulfonic acid] | high | good | low | fast | substantially non-hygroscopic |  |
| C[C@H]1[C@H](NC(=O)/C(=N\OC(C)(C)C(=O)O)c2csc(N)n2)C(=O)N1S(=O)(=O)O [γ-Form] | low | poor | high | fast |  |  |
| C[C@H]1[C@H](NC(=O)/C(=N\OC(C)(C)C(=O)O)c2csc(N)n2)C(=O)N1S(=O)(=O)O [δ-Form, [3S-[3α(Z),4β]]-3-[[(2-amino-4-thiazolyl)[(1-carboxy-1-methylethoxy)imino]acetyl]amino]-4-methyl-2-oxo-1-azetidinesulfonic acid] | high | good | low | fast |  | greater than that of the α-form, or for that matter simple salts of the compound |
